In ChEMBL document CHEMBL1201862, “PubChem BioAssay data set” (2004):
The source made the active and inactive calls. For most assays here, no stated cut-off is given here; in the data, actives have a measured IC50 and inactives only a lower limit.

How the values were obtained:
[1] = test system: Streptococcus sp. 'group A'; experiment: Streptococcus pyogenes SK(-)GAS viability under kanamycin – luminescence, BacTiterGlo, confirmation, counter-screen for streptokinase expression inhibitor project, dose response (AID 1900); type: functional, organism-based
[2] = test system: Streptococcus; experiment: GAS UMAA2166 growth inhibition – luminescence, BacTiterGlo, counter-screen for streptokinase expression inhibitor project, dose response (AID 1915); type: functional, organism-based;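 further: potency for reduction of bacterial viability or growth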
[3] = target: T1, Sentrin-specific protease 6 (Homo sapiens, UniProt Q9GZR1); type: functional;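 further: Luminescence-based dose-response confirmatory assay of SENP6 inhibition, following up an ultra-high-throughput screen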
T1 sequence (Q9GZR1 whole entry): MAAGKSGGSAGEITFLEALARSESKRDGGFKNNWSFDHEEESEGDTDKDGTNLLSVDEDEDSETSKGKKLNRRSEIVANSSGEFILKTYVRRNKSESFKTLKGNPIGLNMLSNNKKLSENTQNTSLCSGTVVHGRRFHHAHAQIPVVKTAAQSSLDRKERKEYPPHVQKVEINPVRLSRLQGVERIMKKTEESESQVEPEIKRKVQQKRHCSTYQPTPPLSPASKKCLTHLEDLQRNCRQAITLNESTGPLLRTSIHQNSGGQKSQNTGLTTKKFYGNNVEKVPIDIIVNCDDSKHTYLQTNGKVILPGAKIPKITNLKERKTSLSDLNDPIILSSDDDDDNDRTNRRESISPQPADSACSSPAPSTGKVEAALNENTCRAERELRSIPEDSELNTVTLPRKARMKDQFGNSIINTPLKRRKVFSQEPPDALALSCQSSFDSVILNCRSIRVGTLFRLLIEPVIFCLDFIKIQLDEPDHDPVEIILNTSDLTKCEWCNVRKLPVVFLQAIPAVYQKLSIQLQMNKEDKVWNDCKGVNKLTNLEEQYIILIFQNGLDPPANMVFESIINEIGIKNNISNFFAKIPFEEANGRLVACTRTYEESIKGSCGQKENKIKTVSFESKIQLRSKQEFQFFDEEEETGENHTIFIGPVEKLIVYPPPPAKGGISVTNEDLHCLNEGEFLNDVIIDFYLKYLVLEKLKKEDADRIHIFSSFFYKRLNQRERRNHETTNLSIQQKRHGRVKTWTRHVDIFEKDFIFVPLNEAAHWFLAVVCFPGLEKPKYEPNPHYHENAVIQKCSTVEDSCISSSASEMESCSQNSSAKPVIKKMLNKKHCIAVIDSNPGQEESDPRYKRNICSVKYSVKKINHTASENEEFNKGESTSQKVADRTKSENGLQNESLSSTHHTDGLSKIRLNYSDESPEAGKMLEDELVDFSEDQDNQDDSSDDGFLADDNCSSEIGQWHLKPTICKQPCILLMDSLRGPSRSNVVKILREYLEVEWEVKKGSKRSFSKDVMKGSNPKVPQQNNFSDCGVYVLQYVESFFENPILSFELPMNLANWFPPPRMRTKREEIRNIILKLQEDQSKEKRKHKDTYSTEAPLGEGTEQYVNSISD

[4] = target: T2, Sentrin-specific protease 8 (Homo sapiens, UniProt Q96LD8); type: functional;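 further: luminescence read-out of SENP8 inhibition, dose-response confirmation following an ultra-high-throughput screen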
T2 sequence (Q96LD8 whole entry): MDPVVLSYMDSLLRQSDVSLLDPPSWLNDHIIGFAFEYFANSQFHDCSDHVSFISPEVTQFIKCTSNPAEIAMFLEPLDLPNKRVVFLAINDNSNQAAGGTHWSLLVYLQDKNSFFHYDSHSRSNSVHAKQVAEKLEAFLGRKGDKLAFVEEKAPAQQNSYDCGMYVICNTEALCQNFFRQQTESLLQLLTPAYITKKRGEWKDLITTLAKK

[5] = target: T3, Apoptotic protease-activating factor 1 (Homo sapiens, UniProt O14727); type: functional
T3 sequence (O14727 whole entry): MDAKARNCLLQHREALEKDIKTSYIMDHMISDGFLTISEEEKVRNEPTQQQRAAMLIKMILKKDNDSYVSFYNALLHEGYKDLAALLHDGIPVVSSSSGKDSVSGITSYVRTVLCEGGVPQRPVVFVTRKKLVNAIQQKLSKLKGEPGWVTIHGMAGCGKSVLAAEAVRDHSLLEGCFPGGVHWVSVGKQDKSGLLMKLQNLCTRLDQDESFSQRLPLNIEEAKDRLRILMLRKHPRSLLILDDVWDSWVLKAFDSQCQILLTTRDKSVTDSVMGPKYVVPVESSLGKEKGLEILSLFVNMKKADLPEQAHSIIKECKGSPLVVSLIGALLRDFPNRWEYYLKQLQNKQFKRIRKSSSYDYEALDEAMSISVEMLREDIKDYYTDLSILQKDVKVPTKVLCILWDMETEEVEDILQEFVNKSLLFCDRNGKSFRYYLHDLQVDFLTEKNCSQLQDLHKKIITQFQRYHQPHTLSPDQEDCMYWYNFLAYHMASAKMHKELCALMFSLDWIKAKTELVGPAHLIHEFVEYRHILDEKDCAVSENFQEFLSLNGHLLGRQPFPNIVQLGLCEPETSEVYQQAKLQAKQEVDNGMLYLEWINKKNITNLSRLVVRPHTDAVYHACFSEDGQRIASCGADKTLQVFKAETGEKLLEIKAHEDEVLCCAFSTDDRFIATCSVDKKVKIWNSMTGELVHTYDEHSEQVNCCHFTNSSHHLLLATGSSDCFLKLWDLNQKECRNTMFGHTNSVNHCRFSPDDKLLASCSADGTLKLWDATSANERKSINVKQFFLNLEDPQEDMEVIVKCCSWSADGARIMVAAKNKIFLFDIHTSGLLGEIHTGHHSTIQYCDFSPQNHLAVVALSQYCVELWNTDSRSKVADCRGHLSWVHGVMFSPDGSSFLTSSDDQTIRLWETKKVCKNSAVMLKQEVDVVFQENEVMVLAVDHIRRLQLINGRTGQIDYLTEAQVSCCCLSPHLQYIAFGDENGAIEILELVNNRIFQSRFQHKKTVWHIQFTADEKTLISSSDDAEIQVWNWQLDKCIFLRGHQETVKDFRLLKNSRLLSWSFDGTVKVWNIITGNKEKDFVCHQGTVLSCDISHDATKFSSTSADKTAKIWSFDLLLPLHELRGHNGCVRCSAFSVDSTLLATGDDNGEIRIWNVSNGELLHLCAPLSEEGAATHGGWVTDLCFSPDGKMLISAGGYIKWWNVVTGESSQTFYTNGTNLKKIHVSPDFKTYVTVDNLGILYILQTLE

O=C(Nc1ccccc1)c1nnsc1[S+]([O-])c1ccc(Cl)cc1 (stereo not given)
active: EC50 [1] 2.11 µM | EC50 [2] 3.79 µM

CC1OC(Nc2cccc3ccccc23)C(O)C(O)C1O (stereo not given)
active: IC50 [3] 3.63 µM | IC50 [4] 6.06 µM | IC50 [5] 14.8 µM

O=C1C=C(Nc2ccccc2)c2ccccc2C1=O
active: EC50 [1] 1.77 µM | EC50 [2] 8.86 µM | IC50 [3] 5.8 µM | IC50 [4] 9.45 µM | IC50 [5] 2.23 µM
